Data reported in ChEMBL document CHEMBL1201862, “PubChem BioAssay data set” (2004).
Active and inactive are the calls of the source.

How the values were obtained:
Aspartyl aminopeptidase = Aspartyl aminopeptidase (Plasmodium falciparum 3D7, UniProt Q8I2J3)
Procathepsin L = Procathepsin L (Homo sapiens, UniProt P07711)
[1] = Luminescence Cell-Based Dose Retest to Confirm Inhibitors of Cancer Stem Cells. [Related pubchem assays (depositor defined):AID2717, AID2721]; type: functional; details: Homo sapiens
[2] = luciferase reporter signal suppression in cells – H4 neuroglioma cells, luminescence, dose response (AID 1990); type: functional, cell-based
[3] = luciferase reporter signal reduction – luminescence, H4-C neuroglioblastoma cells, dose response (AID 2458); type: functional, cell-based;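 note: H4 neuroglioblastoma cells stably carrying a luciferase reporter gene fusion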
BJ [4] = assay: BJ-TERT fibroblast viability loss – cell-based, RAS-independent, luminescence, dose response (AID 1933); type: functional; details: Homo sapiens
cells = type: functional, cell-based
[5] = Luminescence Cell-Based Dose Response HTS to Identify Inhibitors of 5'UTR Stem-Loop Driven Prion Protein mRNA Translation in H4 Neuroglioblastoma Cells. [Related pubchem assays: 1827 (Project Summary), 1813 (Primary HTS)]; type: functional
[6] = alpha-synuclein stem-loop luciferase translation blockers – H4 neuroglioma cells, luminescence, confirmation (AID 1988); type: functional, cell-based
BJ [7] = assay: cells; type: functional, cell-based; details: Homo sapiens
[8] = Luminescence-based dose response cell-based high throughput screening assay for cytotoxic compounds using the IEC-6 intestinal epithelial cell line. [Related pubchem assays: 1858 (Summary AID.), 1825 (Counterscreen.), 1907 (Confirmation screen.)]; type: functional
BJ [9] = assay: BJ-TERT-LT-ST fibroblast viability loss – cell-based, RAS-independent, luminescence, dose response (AID 1935); type: functional; details: Homo sapiens;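 note: BJ fibroblasts immortalized with TERT plus LT and ST oncogenes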
[10] = DRD fibroblast viability loss – cell-based, non-viral oncogenic, luminescence, dose response (AID 1934); type: functional; details: Homo sapiens
[11] = alpha-synuclein stem-loop translation blockers – luminescence, H4 neuroglioblastoma cells, dose confirmation, confirmation (AID 2454); type: functional, cell-based;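 note: H4 neuroglioblastoma cells carrying an alpha-synuclein 5'UTR luciferase reporter; potency for inhibition of the luciferase signal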
BJ [12] = assay: growth inhibition of engineered Ras-driven BJ cells – cell-based, alamar blue fluorescence, cherrypicked samples, dose response (AID 2631); type: functional; details: Homo sapiens;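 note: confirmatory dose-response assay in RAS-dependent BJ fibroblasts engineered with TERT, LT and ST, with cytotoxicity read by fluorescence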
[13] = A cytotoxicity screen of small molecule inhibitors of the PhoP region in Salmonella typhi identified in the primary screen. [Related pubchem assays: 1850, 1864, 1985 ]; type: functional
Genome polyprotein = Genome polyprotein (dengue virus type 2, UniProt P29990); assay: flavivirus cap methylation enzyme inhibition – biochemical, confirmation dose response, primary screen (AID 588689); type: functional
[14] = biological target: Epstein-Barr nuclear antigen 1 (Epstein-Barr virus (strain B95-8) (HHV-4) (Human herpesvirus 4), UniProt P03211); assay: inhibition of EBV nuclear antigen 1 DNA binding – biochemical, fluorescence polarization, 1536-well, dose response (AID 2381); design: species or system human gammaherpesvirus 4;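 note: fluorescence polarization of a Cy5 DNA probe bound by EBNA-1 protein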
[15] = biological target: Lytic switch protein BZLF1 (Epstein-Barr virus (strain B95-8) (HHV-4) (Human herpesvirus 4), UniProt P03206); assay: inhibition of BZLF1 ZTA DNA binding – biochemical, fluorescence polarization, Epstein-Barr virus, 1536-well, counter-screen for EBNA-1 inhibitor project, dose response (AID 2377); design: species or system human gammaherpesvirus 4;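 note: fluorescence polarization of Cy5-labelled ZRE DNA probe bound by purified Zta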
[16] = NIH-3T3 fibroblast cytotoxicity, dose response, cytotoxicity control, cell-based, fluorescence, Alamar Blue, secondary assay (AID 2327); type: functional;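 note: NIH-3T3 mouse fibroblasts cultured with fluconazole at 8 µg/mL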
[17] = fluconazole-exposed Candida albicans growth modulators – fluorescence, retest, confirmation (AID 2467); type: functional, cell-based
[18] = biological target: T1, Polyadenylate-binding protein 1 (Homo sapiens, UniProt P11940); assay: MLLE binding blockers, Cy5 peptide tracer – biochemical, fluorescence polarization, Cy5-PAM2 peptide, secondary, miRNA deadenylation inhibitor project, dose response (AID 602260); type: functional; details: read-out: IC50_Mean
[19] = biological target: T1, Polyadenylate-binding protein 1; assay: MLLE domain peptide-binding blockers, IC50 – biochemical, fluorescence polarization, FITC-PAM2 peptide, dose response (AID 602259); type: functional; details: read-out: IC50_Mean
[20] = biological target: T2, RNA-binding protein pos-1 (Caenorhabditis elegans, UniProt G5EF15); assay: disruptors of C. elegans POS-1 RNA interaction – biochemical, fluorescence polarization, dose response (AID 1964);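 note: purified POS-1 fused to maltose binding protein made in E. coli; potency of compounds blocking POS-1 binding to fluorescent RNA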
T2 sequence (G5EF15 whole entry): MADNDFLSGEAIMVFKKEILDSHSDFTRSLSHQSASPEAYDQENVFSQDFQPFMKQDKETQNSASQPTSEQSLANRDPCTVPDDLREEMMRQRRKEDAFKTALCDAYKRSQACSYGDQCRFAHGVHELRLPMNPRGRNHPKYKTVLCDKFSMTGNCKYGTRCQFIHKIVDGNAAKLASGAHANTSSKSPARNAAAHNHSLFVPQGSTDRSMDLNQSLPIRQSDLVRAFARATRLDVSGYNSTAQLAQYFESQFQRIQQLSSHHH

Large T antigen = Large T antigen (Simian virus 40, UniProt P03070); type: functional, Betapolyomavirus macacae;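 note: Confirmatory-stage PubChem screen for compounds that inhibit SV40 T antigen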
[21] = biological target: T3, Mannose-6-phosphate isomerase (Homo sapiens, UniProt P34949); assay: MPI enzyme activity inhibition – biochemical, fluorescence intensity, coupled assay, primary screen (AID 1209)
T3 sequence (P34949 whole entry): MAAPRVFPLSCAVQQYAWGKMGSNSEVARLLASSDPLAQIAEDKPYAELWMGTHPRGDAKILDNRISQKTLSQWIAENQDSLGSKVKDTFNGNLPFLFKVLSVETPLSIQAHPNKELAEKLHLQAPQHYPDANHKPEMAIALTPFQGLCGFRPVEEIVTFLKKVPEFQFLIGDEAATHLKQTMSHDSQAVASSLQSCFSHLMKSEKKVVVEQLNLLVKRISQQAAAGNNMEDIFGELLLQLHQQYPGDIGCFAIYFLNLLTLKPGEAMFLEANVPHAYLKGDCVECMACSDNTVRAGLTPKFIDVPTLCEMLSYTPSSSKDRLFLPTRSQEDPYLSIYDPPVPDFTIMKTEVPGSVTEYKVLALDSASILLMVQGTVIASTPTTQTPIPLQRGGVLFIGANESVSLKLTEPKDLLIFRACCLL

[22] = biological target: T3, Mannose-6-phosphate isomerase; assay: MPI inhibition at elevated mannose 6-phosphate – biochemical, fluorescence intensity, high mannose 6-phosphate, primary screen (AID 1220)
[23] = biological target: T4, Replicative DNA helicase DnaB (Mycobacterium tuberculosis, UniProt P9WMR3); assay: DnaB intein splicing inhibitors, dose response, biochemical, cell-free fluorescence (AID 449749); type: functional
T4 sequence (P9WMR3 whole entry): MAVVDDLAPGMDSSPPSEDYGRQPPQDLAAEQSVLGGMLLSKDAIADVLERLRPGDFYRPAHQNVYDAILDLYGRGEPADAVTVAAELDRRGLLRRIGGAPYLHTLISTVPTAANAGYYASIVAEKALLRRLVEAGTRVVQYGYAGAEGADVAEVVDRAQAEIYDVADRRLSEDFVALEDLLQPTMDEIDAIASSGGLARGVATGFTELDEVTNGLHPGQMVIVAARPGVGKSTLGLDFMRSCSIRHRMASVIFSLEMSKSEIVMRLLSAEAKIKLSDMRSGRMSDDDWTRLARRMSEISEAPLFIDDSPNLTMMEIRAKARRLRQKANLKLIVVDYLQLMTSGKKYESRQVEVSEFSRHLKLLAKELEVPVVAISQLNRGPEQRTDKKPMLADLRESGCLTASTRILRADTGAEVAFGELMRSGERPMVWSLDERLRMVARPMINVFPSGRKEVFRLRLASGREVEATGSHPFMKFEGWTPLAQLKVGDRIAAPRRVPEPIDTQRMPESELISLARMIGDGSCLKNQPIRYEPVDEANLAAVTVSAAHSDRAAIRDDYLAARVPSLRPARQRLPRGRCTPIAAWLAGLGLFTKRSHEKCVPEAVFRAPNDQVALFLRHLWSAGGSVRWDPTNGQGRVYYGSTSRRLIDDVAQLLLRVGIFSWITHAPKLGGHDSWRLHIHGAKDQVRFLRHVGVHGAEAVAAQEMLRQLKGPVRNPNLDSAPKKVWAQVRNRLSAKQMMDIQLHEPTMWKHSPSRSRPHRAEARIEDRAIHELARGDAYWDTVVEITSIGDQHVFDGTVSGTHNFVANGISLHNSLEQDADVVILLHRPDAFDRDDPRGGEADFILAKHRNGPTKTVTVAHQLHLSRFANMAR

Protein RecA = biological target: T5, Protein RecA (Mycobacterium tuberculosis, UniProt P9WHJ3); assay: Fluorescence Cell-Free Homogeneous Dose Retest to Identify Inhibitors of RecA-Intein Splicing Activity. [Related pubchem assays (depositor defined):AID2097, AID2223, AID489010, AID492950]; type: functional
T5 sequence (P9WHJ3 whole entry): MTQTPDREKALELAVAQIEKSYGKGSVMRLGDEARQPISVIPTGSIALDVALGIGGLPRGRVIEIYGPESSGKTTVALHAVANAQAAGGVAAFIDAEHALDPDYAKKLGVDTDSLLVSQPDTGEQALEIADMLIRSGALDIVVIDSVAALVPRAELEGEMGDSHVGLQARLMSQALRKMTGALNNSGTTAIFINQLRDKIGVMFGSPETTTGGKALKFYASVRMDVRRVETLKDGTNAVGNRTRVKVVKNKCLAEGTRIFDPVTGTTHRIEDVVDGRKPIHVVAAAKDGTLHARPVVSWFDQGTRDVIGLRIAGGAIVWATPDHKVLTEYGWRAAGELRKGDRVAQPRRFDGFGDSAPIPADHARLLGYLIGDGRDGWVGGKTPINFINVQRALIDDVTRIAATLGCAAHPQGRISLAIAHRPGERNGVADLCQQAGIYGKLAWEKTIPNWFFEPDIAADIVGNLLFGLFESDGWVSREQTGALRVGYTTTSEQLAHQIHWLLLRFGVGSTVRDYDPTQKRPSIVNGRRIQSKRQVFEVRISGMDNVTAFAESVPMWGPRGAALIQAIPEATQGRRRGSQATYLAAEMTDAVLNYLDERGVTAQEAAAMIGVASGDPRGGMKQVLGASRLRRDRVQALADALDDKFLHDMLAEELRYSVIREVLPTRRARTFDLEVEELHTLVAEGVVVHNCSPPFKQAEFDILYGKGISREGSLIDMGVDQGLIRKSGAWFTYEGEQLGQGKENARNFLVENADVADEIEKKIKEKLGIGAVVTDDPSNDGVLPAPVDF

Chain of Epstein-Barr nuclear antigen 1 (P03211 whole entry): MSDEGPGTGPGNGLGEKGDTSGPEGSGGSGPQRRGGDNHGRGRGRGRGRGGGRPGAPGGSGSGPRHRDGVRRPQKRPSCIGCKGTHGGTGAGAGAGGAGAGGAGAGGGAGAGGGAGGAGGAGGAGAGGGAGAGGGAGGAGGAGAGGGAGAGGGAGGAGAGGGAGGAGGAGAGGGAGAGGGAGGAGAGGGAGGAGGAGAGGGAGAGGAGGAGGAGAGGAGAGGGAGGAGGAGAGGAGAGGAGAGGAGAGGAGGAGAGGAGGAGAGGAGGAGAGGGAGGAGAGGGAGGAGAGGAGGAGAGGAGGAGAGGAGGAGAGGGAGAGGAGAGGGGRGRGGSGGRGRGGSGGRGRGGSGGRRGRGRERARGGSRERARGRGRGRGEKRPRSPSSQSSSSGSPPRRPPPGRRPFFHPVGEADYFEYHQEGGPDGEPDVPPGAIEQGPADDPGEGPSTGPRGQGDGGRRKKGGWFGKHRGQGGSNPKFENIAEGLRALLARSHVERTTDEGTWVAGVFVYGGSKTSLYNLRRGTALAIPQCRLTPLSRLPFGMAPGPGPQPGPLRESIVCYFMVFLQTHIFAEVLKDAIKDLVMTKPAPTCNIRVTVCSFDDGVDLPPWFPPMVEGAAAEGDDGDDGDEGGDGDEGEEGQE
T1 sequence (P11940 whole entry, the tested form may be a part): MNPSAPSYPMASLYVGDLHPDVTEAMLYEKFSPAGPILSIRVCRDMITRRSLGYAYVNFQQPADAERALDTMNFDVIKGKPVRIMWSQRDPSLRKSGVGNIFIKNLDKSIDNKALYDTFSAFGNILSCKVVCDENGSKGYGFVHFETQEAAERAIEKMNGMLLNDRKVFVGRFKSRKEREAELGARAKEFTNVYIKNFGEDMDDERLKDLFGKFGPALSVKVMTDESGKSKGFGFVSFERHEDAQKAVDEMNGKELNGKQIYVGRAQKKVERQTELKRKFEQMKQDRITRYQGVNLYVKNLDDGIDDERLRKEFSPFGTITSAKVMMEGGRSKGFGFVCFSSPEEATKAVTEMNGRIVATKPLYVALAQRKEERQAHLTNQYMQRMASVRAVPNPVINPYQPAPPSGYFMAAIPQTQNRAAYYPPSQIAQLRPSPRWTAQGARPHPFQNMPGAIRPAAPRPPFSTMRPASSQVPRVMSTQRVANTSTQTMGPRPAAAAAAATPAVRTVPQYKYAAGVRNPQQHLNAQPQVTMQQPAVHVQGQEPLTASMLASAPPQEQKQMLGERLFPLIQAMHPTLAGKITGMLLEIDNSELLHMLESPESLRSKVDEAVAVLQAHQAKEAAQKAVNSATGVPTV
Chain of Procathepsin L (P07711 whole entry): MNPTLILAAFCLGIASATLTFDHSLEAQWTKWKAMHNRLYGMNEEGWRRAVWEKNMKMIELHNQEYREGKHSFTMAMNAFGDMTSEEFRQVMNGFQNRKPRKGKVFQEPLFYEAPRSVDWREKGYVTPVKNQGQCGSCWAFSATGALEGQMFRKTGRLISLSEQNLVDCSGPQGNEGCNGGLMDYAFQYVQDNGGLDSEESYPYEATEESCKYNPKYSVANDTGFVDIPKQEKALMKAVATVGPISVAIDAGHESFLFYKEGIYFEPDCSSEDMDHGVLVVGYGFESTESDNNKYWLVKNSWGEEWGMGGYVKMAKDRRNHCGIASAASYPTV
Chain of Aspartyl aminopeptidase (Q8I2J3 whole entry): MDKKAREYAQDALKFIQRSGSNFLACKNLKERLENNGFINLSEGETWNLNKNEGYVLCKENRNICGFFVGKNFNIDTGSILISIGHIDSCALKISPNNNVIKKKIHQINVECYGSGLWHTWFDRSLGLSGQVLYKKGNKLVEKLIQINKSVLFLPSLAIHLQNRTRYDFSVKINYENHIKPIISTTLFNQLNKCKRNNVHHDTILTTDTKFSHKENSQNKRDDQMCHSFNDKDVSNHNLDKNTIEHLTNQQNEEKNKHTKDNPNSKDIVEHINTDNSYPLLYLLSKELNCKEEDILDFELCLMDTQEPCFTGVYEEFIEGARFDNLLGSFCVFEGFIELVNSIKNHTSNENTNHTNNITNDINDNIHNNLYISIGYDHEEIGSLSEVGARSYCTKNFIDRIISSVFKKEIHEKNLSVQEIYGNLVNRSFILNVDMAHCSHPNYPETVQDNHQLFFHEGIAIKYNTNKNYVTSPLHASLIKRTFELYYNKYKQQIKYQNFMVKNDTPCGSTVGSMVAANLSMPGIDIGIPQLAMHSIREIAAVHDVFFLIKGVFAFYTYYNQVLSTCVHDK
Chain of Lytic switch protein BZLF1 (P03206 whole entry): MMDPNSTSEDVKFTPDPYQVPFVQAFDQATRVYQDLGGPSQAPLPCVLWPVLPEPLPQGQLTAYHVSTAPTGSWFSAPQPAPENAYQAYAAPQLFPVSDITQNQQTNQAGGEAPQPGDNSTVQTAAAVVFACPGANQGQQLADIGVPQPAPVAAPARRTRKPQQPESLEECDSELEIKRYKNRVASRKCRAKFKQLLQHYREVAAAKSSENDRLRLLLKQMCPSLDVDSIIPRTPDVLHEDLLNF
Chain of Genome polyprotein (P29990 2492-3391 limits assumed): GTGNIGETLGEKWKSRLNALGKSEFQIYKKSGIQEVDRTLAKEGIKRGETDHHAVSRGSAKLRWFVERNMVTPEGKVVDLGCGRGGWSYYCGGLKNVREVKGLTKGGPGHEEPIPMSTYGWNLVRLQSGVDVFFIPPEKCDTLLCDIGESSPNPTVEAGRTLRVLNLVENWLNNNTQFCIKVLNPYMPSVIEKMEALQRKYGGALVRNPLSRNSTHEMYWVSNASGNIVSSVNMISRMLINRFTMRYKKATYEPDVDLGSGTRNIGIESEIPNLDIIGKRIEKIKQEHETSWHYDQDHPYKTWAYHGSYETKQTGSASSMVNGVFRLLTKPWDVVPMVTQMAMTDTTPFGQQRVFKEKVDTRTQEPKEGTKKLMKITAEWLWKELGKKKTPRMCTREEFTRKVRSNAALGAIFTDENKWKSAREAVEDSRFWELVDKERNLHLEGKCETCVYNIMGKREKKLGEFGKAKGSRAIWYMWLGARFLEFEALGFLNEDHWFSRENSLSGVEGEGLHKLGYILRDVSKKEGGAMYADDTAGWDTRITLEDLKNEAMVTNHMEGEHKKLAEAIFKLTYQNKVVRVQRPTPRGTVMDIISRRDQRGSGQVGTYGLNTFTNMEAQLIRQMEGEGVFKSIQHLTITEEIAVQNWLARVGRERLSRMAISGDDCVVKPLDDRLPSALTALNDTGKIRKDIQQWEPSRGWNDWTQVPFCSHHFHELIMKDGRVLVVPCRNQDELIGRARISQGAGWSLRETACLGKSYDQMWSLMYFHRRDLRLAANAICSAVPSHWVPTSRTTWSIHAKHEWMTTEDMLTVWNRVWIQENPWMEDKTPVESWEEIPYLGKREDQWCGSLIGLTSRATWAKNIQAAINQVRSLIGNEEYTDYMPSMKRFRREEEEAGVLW
Chain of Large T antigen (P03070 whole entry): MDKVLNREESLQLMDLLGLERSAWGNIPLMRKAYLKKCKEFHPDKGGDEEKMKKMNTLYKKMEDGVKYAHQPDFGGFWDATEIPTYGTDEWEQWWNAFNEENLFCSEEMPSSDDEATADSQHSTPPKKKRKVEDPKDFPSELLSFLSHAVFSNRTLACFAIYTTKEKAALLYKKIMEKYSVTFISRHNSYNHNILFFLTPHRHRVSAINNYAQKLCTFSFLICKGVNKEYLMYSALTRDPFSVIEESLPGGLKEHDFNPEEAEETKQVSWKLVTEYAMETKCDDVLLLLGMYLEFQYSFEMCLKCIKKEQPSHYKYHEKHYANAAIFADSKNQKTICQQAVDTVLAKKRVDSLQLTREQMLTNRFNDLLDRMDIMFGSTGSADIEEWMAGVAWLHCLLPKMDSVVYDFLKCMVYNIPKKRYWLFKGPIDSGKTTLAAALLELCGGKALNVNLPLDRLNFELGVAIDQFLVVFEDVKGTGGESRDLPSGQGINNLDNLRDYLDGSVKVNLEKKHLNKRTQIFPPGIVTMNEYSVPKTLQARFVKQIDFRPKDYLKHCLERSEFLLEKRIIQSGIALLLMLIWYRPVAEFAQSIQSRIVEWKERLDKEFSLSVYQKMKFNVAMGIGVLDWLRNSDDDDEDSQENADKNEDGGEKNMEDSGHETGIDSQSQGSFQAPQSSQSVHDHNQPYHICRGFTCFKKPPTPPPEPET

## COCC(C)NC(=O)NC1(C(F)(F)F)Oc2ccc(Cl)cc2O1 (stereo not given)
Aspartyl aminopeptidase
  IC50: 1.79 µM (active)
Procathepsin L
  IC50: > 59.6 µM (not active)
[1]
  AC50: 6.69 µM (active)

## O=C(NCCOc1cccnc1)c1ccc(OC2CCN(Cc3ccccn3)CC2)cc1
[2]
  EC50: 0.158 µM (active)
[3]
  EC50: 0.821 µM (active)
BJ [4]
  EC50: 78.3 µM (active)
cells
  EC50: 0.577 µM (active)
[5]
  EC50: 0.202 µM (inconclusive)
[6]
  EC50: < 0.1 µM (active)
BJ [7]
  EC50: 0.334 µM (inconclusive)
[8]
  IC50: 0.0533 µM (active)
BJ [9]
  EC50: 0.543 µM (inconclusive)
[10]
  EC50: 3.96 µM (active)
[11]
  EC50: 0.623 µM (active)
BJ [12]
  EC50: 0.254 µM (active)

## COc1cc(/C=C(/C#N)C(=O)Nc2ccccc2)c(Br)cc1OCc1ccc(C(=O)O)cc1
[13]
  EC50: > 50 µM (active)
Genome polyprotein
  IC50: 66.6 µM (active)

## Cc1ccccc1N(C(=O)c1snc(C(N)=O)c1N)C(C(=O)NCC1CCCO1)c1ccc(N(C)C)cc1 (stereo not given)
[14]
  IC50: 13.6 µM (not active)
[15]
  IC50: > 111 µM (not active)

## Cc1ccc([N+](=O)[O-])cc1-c1[nH]c(-c2ccc(O)c(O)c2)nc1-c1ccccc1
[16]
  EC50: 57.8 µM (active)
Aspartyl aminopeptidase
  IC50: 1.69 µM (active)
Procathepsin L
  IC50: > 59.6 µM (not active)
[17]
  EC50: > 38 µM (not active)

## O=C(NC(=S)Nc1ccc(S(=O)(=O)Nc2nccs2)cc1)c1cccnc1
[13]
  EC50: > 50 µM (active)
[18]
  IC50: > 66 µM (inactive)
[19]
  IC50: > 66 µM (inactive)

## CC1CCCC(C)N1S(=O)(=O)c1ccc(NC(=O)CCn2cnc3ccccc3c2=O)cc1 (stereo not given)
[14]
  IC50: 16.4 µM (not active)
[15]
  IC50: > 111 µM (not active)

## Cc1ncc(CO)c(/C=N/NC(=O)c2cc(O)c(O)c(O)c2)c1O
[20]
  EC50: 71.2 µM (active)
Large T antigen
  IC50: 3.72 µM (active)
[21]
  IC50: 4.5 µM (active)

## O=[N+]([O-])c1cccc(/N=C/C2=C(O)c3ccccc3CC2)c1
[21]
  IC50: 10.3 µM (active)
[22]
  IC50: > 50 µM (not active)
[23]
  AC50: > 380 µM (inactive)
Protein RecA
  EC50: 10.6 µM (active)
